This note sets out measurements from PubChem BioAssay (NCI).

Test systems include A498 renal; BT-549 breast; CCRF-CEM leukemia; EKVX NSCLC; HCT-15 colon; MDA-N; MOLT-4 leukemia; OVCAR-8 ovarian; PC-3 prostate; SK-MEL-28 melanoma; SN12C renal; SNB-75 CNS; SR leukemia.
Holding throughout (assay): NCI-60 cell line screen, 48 h

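Grown in 96-well plates, cells were treated for 48 hours with each compound at five concentrations. Insufficient inhibition: endpoint recorded as highest concentration tested. TGI denotes the concentration required for complete inhibition of growth.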

Turning to `Cc1ccccc1C(=O)N1CCc2c([nH]c3ccccc23)C1`, the TGI was 51.4 µM with A498 renal; 42.8 µM with BT-549 breast; 74 µM in the test with CCRF-CEM leukemia; 75 µM in the test with EKVX NSCLC; 62.1 µM in the test on HCT-15 colon; 43.9 µM in the test on MDA-N. In addition, the TGI was 80 µM in the test on MOLT-4 leukemia; above 100 µM in the test on OVCAR-8 ovarian; 33.9 µM in the test on PC-3 prostate; above 100 µM in the test with SK-MEL-28 melanoma; 34.1 µM in the test with SN12C renal; 61.9 µM in the test with SNB-75 CNS. Also, the TGI in the test on SR leukemia came to 50 µM.

On to `O=C1/C(=C\c2ccccc2)C(NC2CCCCC2)c2ccccc21` (stereo not drawn), for which the TGI with A498 renal was 32.7 µM; in the test on BT-549 breast, 5.69 µM; in the test with CCRF-CEM leukemia it was 0.294 µM; in the test on EKVX NSCLC it was 11.2 µM; in the test on HCT-15 colon, 5.79 µM; in the test on MDA-N it was 3.8 µM. Besides, the TGI in the test on MOLT-4 leukemia was 3.02 µM; in the test on OVCAR-8 ovarian, 6.09 µM; in the test on PC-3 prostate, 3.78 µM; with SK-MEL-28 melanoma it was 6.06 µM; with SN12C renal, 4.37 µM; in the test on SNB-75 CNS, 4.45 µM. Besides, the TGI in the test with SR leukemia stood at 0.473 µM.

Consider `O=C1C=CC(=O)c2c1ccc1c3ccccc3n(CCCCCCCCCCCCn3c4ccccc4c4ccc5c(c43)C(=O)C=CC5=O)c21`, for which the TGI with A498 renal is above 100 µM; in the test with BT-549 breast it was above 100 µM; in the test on CCRF-CEM leukemia, 74.1 µM; in the test with EKVX NSCLC, above 100 µM; with HCT-15 colon, above 100 µM; in the test on MDA-N, above 100 µM. Also, the TGI is above 90.5 µM in the test with MOLT-4 leukemia; above 100 µM with OVCAR-8 ovarian; above 100 µM in the test on PC-3 prostate; above 100 µM in the test on SK-MEL-28 melanoma; above 100 µM in the test on SN12C renal; above 100 µM with SNB-75 CNS. Moreover, the TGI with SR leukemia is above 100 µM.

Take `CC1(C)N=[N+]([O-])C1(C)C`: the TGI in the test with A498 renal, in the test with BT-549 breast, in the test on CCRF-CEM leukemia, with EKVX NSCLC, in the test with HCT-15 colon and in the test with MDA-N was above 100 µM each time. The TGI in the test with MOLT-4 leukemia, in the test with OVCAR-8 ovarian, in the test with PC-3 prostate, in the test on SK-MEL-28 melanoma, with SN12C renal and in the test on SNB-75 CNS was above 100 µM throughout. This molecule also had a TGI in the test with SR leukemia above 100 µM.

With `Nn1c(-c2ccccc2)nn(C(=O)c2ccccc2)c1=O`, the TGI with A498 renal, with BT-549 breast, in the test with CCRF-CEM leukemia, in the test on EKVX NSCLC, in the test with HCT-15 colon and in the test with MDA-N was above 100 µM each time. For the same molecule, the TGI in the test on MOLT-4 leukemia, in the test on OVCAR-8 ovarian, in the test on PC-3 prostate, with SK-MEL-28 melanoma, in the test with SN12C renal and with SNB-75 CNS was above 100 µM throughout. In the test with SR leukemia, this molecule gave a TGI above 100 µM.

On to `COc1ccc2cc(NC(=O)N/N=C\c3ccc([N+](=O)[O-])cc3)ccc2c1`, for which the TGI is above 100 µM with A498 renal; 76.5 µM with BT-549 breast; above 100 µM with CCRF-CEM leukemia; above 100 µM in the test with EKVX NSCLC; above 100 µM in the test with HCT-15 colon; above 100 µM in the test with MDA-N. Besides, the TGI in the test on MOLT-4 leukemia was above 100 µM; in the test on OVCAR-8 ovarian it was 87.3 µM; in the test with PC-3 prostate, above 100 µM; in the test with SK-MEL-28 melanoma, above 100 µM; in the test on SN12C renal it was above 100 µM; in the test with SNB-75 CNS it was 65.4 µM. In the test on SR leukemia, this molecule had a TGI above 100 µM.
